Assay results as given in US20250178051A1, “METHODS OF CONTROLLING MICROBIOLOGICAL PROCESSES FOR IN SITU CONTAMINANT TREATMENT” (priority 2022, published 2025).

Assays:
[1] = tested on: Mycobacterium austroafricanum JOB5; test: TCE cometabolism and biomass production of pure culture after acetylene exposure; type: cell-based; conditions: for TCE consumption rate: 5% v/v acetylene, 50 μM TCE
Text: (§1) Aerobic cometabolism of TCE is a viable methodology for TCE removal in large diffuse contaminant plumes. A pure culture of the known aerobic cometabolic TCE degrader, Mycobacterium austroafricanum JOB5 (formerly known as Mycobacterium vaccae JOB5) and a mixed culture enriched from an uncontaminated soil in mineral medium using propane and oxygen as growth substrates were used to test the efficiency of acetylene in reducing biomass growth rate (e.g., a proxy for bioclogging). The mixed culture was created through serial transfers from the original soil microcosms.
(§2) The pure and mixed cultures were then exposed to 50 μM TCE to verify their capacity to aerobically cometabolically degrade TCE. Once their capability to degrade TCE was verified, both cultures were grown in 2 L bottles and fed oxygen and propane until the optical density at 600 nm stabilized at ˜0.2 for multiple days. Then, the two cultures were exposed to acetylene at 5% v/v for varying lengths of time (no exposure (0), 1, 2, 4 and 8 days). The dissolved acetylene concentration in the 2 L bottles was 2.2 mmol/L.
(§3) After the set acetylene exposure time, culture was extracted, and triplicate bottles were started with 50 μM TCE and a pure oxygen headspace. The cultures were then monitored for propane (residual and added) and oxygen consumption, TCE degradation, carbon dioxide production, biomass production, and pH change.

[2] = tested on: soil-derived propane-consuming mixed culture; test: TCE cometabolism and biomass production of mixed culture after acetylene exposure; type: cell-based, mixed culture enriched from an uncontaminated soil; conditions: for TCE consumption rate: 5% v/v acetylene, 50 μM TCE
Text: as §1, §2, §3

[3] = tested on: Mycobacterium austroafricanum JOB-5 (JOB-5) and a mixed culture, named COMET1; test: Soil columns with contaminated site soil and groundwater, flow through mode, acetylene-containing groundwater; parameters: species or system Mycobacterium austroafricanum JOB-5 and COMET1 mixed culture; conditions: soil columns, propane fed and acetylene inhibited, two three-hour pulses per day at 0.2 mL/min
Description: Groundwater was pumped at a 2-Day HRT (0.2 mL/min) from six pumps programmed to automatically turn on and turn off to deliver groundwater of varying chemistries to the soil columns. For the Propane-Fed (pumps 2-3) and the Propane-Fed and Acetylene-Inhibited treatments (pumps 4-6) which had multiple pumps feeding into one line PVC plastic check valves were installed at line splitting locations to avoid backflow to other feeder bags when pumps automatically started or stopped pumping according to the schedule presented in FIG. 5.
Acetylene or propane from a gas tank was bubbled into groundwater in a closed container in the lab. That groundwater was then pumped from closed container to a sealable Tedlar bag. The Tedlar bag was then connected to the pump which was controlled by a timer to deliver two three-hour pulses of acetylene containing groundwater at 0.2 mL/min per day. The pump effectively serves as a seal for the Tedlar bag as the tubing is pinched at one location to create suction.
For propane, 0.5 L of propane was bubbled through 10 L water for at least four hours. That propane-containing water was then pumped into a Tedlar bag. For the treatments which received propane-containing water, the water was pumped into the columns at 0.2 mL/min to 6 hrs/day (two three-hour pulses). For acetylene, 0.5 L of acetylene was bubbled through 10 L water for at least four hours. That acetylene-containing water was then pumped into a Tedlar bag. For the treatments which received acetylene-containing water, the water was pumped into the columns at 0.2 mL/min to 6 hrs/day (two three-hour pulses) […]
Phase I involves bioaugmentation in soil columns in batch mode. […] Batches were continued until either propane was not detected in the groundwater or propane consumption slowed. […]
Phase II involves flow through mode. […] These gas syringes were then analyzed for TCE, propane, and acetylene via gas chromatography with flame ionization detection (GC-FID) and for oxygen and carbon dioxide via assessment of a thermal conductivity detector (TCD). […]

[4] = as acetylene exposure times increased (1-8 days), 5% v/v

Compound: C#C [acetylene]
- rate of TCE degradation [1, 4]: decreased
- rate of biomass production (optical density) [1, 4]: decreased
- TCE consumption rate ([1]; day 1 of acetylene exposure): 0.42 μmol TCE/(L day)
- TCE consumption rate ([1]; day 2 of acetylene exposure): 0.63 μmol TCE/(L day)
- TCE consumption rate ([1]; day 4 of acetylene exposure): 0.36 μmol TCE/(L day)
- TCE consumption rate ([1]; day 8 of acetylene exposure): 0.07 μmol TCE/(L day)
- rate of TCE degradation [2, 4]: decreased
- rate of biomass production (optical density) [2, 4]: decreased
- TCE consumption rate ([2]; day 1 of acetylene exposure): 0.45 μmol TCE/(L day)
- TCE consumption rate ([2]; day 2 of acetylene exposure): 0.54 μmol TCE/(L day)
- TCE consumption rate ([2]; day 4 of acetylene exposure): 0.52 μmol TCE/(L day)
- TCE consumption rate ([2]; day 8 of acetylene exposure): 0.25 μmol TCE/(L day)
- TCE degradation (cumulative TCE removal) [3]: slowed
- biomass production (total organic carbon as proxy) [3]: slowed
- propane consumption (cumulative) [3]: slowed
